ChEMBL document CHEMBL1201862, “PubChem BioAssay data set” (2004)
Calls of active or inactive are those of the source.

How the values were obtained:
[1] = target: T1, Apoptotic protease-activating factor 1 (Homo sapiens, UniProt O14727); test: SAR analysis of small molecule Activators of Apaf-1 in a Fluorescent assay.; type: functional; details: read-out: EC50_Mean;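 further: caspase-3 cleavage of fluorogenic Rh110 DEVD substrate downstream of apoptosome activation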
T1 sequence (O14727 whole entry): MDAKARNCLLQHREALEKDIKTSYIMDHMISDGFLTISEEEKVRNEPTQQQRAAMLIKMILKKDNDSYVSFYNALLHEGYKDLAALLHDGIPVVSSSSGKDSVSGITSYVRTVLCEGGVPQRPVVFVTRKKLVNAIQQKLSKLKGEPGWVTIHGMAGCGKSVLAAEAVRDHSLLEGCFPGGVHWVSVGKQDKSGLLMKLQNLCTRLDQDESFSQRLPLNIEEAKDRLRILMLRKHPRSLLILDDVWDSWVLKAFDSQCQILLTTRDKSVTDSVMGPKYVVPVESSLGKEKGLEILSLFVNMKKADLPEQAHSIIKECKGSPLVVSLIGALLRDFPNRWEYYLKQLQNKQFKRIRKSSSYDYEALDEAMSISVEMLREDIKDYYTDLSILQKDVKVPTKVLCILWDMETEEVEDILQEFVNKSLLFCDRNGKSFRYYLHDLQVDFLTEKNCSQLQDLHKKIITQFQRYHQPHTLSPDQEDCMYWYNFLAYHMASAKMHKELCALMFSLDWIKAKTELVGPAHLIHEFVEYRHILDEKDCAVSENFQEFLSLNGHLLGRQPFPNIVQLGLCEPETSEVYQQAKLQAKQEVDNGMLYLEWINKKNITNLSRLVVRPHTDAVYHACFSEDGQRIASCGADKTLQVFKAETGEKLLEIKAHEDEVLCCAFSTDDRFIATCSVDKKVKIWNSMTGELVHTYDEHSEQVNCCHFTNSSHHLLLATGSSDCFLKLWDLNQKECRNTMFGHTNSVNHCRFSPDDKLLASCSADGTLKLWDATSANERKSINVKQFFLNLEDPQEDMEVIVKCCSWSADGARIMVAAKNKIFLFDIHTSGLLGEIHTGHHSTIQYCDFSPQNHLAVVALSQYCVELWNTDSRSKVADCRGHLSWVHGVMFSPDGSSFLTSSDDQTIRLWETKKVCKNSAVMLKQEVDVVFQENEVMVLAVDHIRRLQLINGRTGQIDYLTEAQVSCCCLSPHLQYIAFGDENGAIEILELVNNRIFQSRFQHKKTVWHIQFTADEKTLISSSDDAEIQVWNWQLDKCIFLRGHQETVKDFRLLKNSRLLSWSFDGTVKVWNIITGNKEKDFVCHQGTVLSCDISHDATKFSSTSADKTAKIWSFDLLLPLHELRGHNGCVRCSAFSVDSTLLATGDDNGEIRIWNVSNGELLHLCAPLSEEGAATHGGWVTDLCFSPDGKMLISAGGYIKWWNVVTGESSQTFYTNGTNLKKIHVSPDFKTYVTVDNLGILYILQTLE

[2] = CRF-BP/CRF-R2 complex antagonists, dose response, cell-based, uHTS hits, 384-well (AID 651639); type: functional, Homo sapiens; details: read-out: IC50_Mean
Beta-lactamase [3] = target: Beta-lactamase (Salmonella choleraesuis (strain SC-B67), UniProt Q5J463)
[4] = target: T2, Voltage-gated N-type calcium channel alpha-1B subunit/Amyloid beta A4 precursor protein-binding family A member 1 (Homo sapiens, UniProt Q00975+Q02410); type: protein assay
[5] = target: T2, Voltage-gated N-type calcium channel alpha-1B subunit/Amyloid beta A4 precursor protein-binding family A member 1; type: protein assay; remark: listed apart in the source
[6] = target: Dual specificity protein phosphatase 3 (Homo sapiens, UniProt P51452); test: VHR phosphatase inhibition, dose response, selectivity assay for STEP inhibitor project, biochemical (AID 602374); type: functional; details: read-out: IC50_Mean
[7] = target: Tyrosine-protein phosphatase non-receptor type 22 (Homo sapiens, UniProt Q9Y2R2); test: PTPN22 phosphatase inhibition, dose response, selectivity assay for STEP inhibitor project, biochemical (AID 624241); type: functional
[8] = target: T3, Low molecular weight phosphotyrosine protein phosphatase (Homo sapiens, UniProt P24666); type: functional; details: read-out: IC50_Mean
T3 sequence (P24666 whole entry): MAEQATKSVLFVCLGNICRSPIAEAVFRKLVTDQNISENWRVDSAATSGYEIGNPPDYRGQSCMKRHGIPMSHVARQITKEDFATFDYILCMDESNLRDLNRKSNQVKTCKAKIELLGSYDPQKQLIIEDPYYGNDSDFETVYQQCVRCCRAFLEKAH

Beta Lactamase = Beta Lactamase (Pseudomonas aeruginosa, UniProt Q932Y6);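 further: confirmatory high-throughput screen measuring VIM-2 metallo-beta-lactamase inhibition by epi-absorbance in dose response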
[9] = target: T4, Tyrosine-protein phosphatase non-receptor type 11 (Homo sapiens, UniProt Q06124); test: SHP2 phosphatase inhibition, dose response, selectivity assay for STEP inhibitor project, biochemical (AID 602367); type: functional; details: read-out: IC50_Mean
T4 sequence (Q06124 whole entry): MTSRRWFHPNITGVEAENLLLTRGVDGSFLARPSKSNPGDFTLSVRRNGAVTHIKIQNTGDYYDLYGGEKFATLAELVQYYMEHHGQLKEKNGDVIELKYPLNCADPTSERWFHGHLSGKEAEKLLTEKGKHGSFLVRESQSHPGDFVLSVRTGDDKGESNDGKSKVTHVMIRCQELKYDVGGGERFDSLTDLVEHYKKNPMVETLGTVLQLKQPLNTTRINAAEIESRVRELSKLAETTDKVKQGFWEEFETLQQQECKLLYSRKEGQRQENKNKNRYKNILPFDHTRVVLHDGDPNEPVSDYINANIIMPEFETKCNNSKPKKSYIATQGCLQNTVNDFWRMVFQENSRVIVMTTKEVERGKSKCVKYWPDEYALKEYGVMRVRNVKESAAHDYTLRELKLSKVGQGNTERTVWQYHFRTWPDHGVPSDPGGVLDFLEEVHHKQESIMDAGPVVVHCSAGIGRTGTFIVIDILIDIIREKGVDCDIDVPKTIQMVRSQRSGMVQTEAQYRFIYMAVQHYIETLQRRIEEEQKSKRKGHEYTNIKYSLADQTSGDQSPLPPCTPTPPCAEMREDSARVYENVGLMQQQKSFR

Beta-lactamase [10] = target: Beta-lactamase (Pseudomonas aeruginosa, UniProt Q79MP6);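 further: biochemical dose-response test of metallo-beta-lactamase enzyme inhibition, read out by epi-absorbance; purified recombinant IMP-1 metallo-beta-lactamase with nitrocefin as substrate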
[11] = target: T3, Low molecular weight phosphotyrosine protein phosphatase; type: functional; details: read-out: IC50_Mean; remark: listed apart in the source
[12] = target: T5, Tyrosine-protein phosphatase non-receptor type 5 (Homo sapiens, UniProt P54829); test: STEP phosphatase inhibitors, confirmation, biochemical, fluorescence intensity, uHTS hits (AID 602372); type: functional; details: read-out: IC50_Mean
T5 sequence (P54829 whole entry): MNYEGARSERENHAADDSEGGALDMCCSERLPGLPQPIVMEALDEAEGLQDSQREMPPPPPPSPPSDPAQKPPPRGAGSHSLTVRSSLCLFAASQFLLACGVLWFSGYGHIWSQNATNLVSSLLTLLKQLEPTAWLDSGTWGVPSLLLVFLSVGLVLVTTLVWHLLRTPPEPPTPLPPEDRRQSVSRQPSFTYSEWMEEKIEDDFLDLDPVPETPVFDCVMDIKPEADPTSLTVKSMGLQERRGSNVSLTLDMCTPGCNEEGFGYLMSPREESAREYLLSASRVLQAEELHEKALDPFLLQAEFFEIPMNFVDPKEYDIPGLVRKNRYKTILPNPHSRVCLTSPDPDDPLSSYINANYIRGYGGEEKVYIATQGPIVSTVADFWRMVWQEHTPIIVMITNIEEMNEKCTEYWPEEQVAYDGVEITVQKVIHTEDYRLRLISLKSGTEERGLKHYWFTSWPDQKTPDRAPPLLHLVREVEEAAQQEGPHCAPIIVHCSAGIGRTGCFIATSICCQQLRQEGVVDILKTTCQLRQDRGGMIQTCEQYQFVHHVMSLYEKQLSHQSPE

T2 sequence (Q00975 whole entry): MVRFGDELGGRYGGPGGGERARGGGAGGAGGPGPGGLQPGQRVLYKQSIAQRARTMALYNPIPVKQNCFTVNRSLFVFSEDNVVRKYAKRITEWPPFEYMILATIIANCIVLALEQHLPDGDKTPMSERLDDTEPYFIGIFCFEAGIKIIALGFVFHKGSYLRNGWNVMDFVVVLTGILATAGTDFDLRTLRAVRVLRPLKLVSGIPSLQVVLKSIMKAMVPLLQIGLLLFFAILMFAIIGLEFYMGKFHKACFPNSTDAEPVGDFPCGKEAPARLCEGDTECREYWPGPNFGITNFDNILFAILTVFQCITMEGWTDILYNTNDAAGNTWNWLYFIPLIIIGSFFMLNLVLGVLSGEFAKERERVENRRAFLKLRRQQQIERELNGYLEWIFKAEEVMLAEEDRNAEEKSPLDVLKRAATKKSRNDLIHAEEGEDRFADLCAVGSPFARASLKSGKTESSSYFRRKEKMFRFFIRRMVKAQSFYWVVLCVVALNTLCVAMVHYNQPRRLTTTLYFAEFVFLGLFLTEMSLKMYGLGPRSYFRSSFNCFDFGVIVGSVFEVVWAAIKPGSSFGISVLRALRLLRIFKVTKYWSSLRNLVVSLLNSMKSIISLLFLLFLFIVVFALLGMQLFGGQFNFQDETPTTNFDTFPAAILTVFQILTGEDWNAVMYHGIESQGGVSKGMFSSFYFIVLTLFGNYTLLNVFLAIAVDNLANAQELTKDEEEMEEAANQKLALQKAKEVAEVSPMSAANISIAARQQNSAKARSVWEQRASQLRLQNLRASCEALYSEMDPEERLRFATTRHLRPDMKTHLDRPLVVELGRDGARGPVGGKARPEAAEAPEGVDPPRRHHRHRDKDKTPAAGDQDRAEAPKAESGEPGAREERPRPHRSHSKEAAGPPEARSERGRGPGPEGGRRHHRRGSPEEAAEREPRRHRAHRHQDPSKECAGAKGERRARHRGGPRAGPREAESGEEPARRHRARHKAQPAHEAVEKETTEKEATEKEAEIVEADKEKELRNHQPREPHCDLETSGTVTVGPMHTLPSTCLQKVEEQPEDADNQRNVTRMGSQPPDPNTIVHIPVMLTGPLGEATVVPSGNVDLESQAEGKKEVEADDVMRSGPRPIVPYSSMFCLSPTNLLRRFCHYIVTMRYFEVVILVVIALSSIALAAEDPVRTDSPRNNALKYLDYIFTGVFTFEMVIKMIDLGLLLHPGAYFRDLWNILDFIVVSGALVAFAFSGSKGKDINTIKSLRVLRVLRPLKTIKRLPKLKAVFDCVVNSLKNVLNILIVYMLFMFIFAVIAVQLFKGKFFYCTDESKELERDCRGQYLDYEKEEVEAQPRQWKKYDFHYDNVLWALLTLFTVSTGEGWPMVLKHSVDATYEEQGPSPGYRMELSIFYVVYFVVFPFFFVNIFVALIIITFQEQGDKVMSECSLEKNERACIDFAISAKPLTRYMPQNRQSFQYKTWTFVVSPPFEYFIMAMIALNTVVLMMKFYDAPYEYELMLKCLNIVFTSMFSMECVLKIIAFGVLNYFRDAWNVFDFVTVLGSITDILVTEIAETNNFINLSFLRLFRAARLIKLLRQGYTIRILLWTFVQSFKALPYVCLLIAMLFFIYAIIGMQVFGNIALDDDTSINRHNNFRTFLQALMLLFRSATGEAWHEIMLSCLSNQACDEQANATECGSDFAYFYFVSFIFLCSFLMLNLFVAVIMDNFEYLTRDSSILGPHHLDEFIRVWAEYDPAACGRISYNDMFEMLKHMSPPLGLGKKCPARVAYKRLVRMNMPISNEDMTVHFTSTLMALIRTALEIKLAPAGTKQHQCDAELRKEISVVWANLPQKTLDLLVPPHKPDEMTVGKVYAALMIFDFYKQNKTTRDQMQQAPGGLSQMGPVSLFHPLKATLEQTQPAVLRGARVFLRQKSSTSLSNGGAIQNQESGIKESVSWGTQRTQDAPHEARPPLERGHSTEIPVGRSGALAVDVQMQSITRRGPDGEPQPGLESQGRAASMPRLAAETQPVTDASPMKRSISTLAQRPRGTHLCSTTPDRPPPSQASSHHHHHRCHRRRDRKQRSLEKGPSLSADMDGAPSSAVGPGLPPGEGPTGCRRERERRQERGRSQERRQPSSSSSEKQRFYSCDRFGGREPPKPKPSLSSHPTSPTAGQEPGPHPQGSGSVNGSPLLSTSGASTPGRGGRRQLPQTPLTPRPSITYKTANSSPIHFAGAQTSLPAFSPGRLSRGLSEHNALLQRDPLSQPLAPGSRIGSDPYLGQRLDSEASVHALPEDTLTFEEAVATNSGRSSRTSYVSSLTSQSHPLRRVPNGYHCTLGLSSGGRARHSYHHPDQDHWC
T2 sequence (Q02410 whole entry): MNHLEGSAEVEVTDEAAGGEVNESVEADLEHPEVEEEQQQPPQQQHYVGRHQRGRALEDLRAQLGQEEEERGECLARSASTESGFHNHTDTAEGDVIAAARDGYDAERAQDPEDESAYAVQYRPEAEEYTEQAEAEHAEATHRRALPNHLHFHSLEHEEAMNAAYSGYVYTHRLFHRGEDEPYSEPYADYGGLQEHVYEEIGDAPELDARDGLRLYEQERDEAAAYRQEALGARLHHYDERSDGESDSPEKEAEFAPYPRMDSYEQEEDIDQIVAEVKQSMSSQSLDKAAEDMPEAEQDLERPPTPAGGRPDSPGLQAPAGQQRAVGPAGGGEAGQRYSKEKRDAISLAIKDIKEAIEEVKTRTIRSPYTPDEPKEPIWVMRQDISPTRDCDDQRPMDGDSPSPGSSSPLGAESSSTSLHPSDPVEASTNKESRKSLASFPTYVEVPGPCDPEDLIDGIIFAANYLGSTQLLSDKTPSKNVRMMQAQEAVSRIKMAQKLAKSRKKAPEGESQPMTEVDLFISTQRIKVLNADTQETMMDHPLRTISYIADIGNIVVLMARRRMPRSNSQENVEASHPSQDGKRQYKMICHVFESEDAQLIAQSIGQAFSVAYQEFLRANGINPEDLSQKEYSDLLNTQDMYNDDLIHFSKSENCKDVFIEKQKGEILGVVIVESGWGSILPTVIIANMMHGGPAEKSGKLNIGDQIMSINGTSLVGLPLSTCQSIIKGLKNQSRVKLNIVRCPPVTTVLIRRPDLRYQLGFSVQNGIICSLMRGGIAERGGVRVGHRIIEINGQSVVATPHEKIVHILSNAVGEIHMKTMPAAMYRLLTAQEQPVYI
Chain of Beta-lactamase (Salmonella choleraesuis (strain SC-B67), UniProt Q5J463) (Q5J463 whole entry): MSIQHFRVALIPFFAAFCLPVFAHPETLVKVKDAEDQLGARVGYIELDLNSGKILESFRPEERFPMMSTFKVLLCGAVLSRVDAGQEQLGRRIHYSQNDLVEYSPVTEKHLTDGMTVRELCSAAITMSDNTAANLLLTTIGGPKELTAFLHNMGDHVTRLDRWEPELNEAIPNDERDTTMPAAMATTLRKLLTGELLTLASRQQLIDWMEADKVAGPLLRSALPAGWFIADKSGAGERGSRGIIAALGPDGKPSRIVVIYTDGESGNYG
Chain of Dual specificity protein phosphatase 3 (P51452 whole entry): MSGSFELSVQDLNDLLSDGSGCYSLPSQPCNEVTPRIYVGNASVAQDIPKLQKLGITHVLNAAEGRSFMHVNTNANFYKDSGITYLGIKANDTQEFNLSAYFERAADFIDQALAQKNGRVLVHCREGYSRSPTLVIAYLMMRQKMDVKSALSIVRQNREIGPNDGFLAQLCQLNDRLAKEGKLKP
Chain of Beta-lactamase (Pseudomonas aeruginosa, UniProt Q79MP6) (Q79MP6 whole entry): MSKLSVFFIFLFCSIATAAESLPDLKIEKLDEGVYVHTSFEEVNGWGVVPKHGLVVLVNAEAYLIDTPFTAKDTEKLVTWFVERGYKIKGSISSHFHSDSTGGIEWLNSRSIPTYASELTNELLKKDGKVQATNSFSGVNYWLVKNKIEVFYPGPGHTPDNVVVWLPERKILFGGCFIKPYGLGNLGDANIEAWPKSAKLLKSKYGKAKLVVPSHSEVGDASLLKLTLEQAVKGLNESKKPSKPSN
Chain of Beta Lactamase (Q932Y6 whole entry): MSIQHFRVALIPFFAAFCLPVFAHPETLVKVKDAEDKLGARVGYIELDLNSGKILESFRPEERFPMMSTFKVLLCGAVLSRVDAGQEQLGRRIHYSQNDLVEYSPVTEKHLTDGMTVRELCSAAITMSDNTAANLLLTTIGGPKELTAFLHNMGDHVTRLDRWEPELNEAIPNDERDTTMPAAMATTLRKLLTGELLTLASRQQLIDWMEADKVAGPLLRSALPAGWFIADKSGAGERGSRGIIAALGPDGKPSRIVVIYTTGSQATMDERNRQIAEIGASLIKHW
Chain of Tyrosine-protein phosphatase non-receptor type 22 (Q9Y2R2 whole entry): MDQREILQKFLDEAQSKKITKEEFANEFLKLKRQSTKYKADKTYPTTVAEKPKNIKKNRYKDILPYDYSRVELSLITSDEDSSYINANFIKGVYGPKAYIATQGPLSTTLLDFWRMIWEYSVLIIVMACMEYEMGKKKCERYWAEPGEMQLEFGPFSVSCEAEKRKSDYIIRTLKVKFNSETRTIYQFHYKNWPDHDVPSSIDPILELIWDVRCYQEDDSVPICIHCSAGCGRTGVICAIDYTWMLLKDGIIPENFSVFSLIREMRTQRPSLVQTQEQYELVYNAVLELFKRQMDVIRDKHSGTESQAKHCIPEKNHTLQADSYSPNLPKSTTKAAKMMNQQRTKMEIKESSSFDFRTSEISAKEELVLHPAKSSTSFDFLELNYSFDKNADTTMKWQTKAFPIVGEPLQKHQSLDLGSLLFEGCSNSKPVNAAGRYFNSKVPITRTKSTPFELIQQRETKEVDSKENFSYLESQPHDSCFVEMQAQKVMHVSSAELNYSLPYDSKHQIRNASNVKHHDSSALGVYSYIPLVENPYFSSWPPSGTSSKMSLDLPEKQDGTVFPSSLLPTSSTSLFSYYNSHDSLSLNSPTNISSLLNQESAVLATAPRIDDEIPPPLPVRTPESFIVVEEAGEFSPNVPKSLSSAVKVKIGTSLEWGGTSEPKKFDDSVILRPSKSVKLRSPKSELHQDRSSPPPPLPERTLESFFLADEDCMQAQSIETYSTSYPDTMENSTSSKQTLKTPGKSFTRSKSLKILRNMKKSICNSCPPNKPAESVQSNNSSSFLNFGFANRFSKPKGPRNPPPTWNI

CCOC(=O)C1CCc2[nH]c3ccc(OC)cc3c2C1 (stereo not drawn)
EC50 [1]: > 100 µM (inactive)

CN(C(=O)COC(=O)CCc1nc(O)c2ccccc2n1)C1CCS(=O)(=O)C1 (stereo not drawn)
IC50 [2]: > 20 µM (inactive)

C/C(=N\Nc1ccc(S(N)(=O)=O)cc1[N+](=O)[O-])c1cccs1
IC50 (Beta-lactamase [3]): > 59.6 µM (inactive)
IC50 [4]: 1.42 µM (active)
IC50 [5]: > 50 µM (inactive)
IC50 [6]: 3.04 µM (active)
IC50 [7]: 81.3 µM (inactive)
IC50 [8]: > 80 µM (inactive)
IC50 (Beta Lactamase): > 59.6 µM (inactive)
IC50 [9]: 2.13 µM (active)
IC50 (Beta-lactamase [10]): > 59.6 µM (inactive)
IC50 [11]: 38.2 µM (inactive)
IC50 [12]: 13.9 µM (active)
